Read-outs that look alike come from different tables or passages of the source.
Experiments:
Type in all cases: cell-based
[1] = molecular target: T1, CaV2.2 (Homo sapiens, UniProt Q00975); experiment: High-throughput CaV2.2/Kir2.3 FLIPR fluorescent assay; details: Fluo-4 FLIPR, closed or inactivated state not stated, read-out: FLIPR data CaV2.2
T1 construct: expressed in transfected cells; host or cells: unnamed doxycycline-inducible cell line
Method in brief: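 Doxycycline-induced cells moved to 29 °C on assay day and were loaded with 4.4 μM Fluo-4. They were held in 2 mM KCl (closed state) or 12.5 mM KCl (inactivated state) buffer, pH 7.4, then depolarized with 130 mM KCl. Fluorescence was read 3 min on FLIPR, and IC50 was obtained from logistic fits.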

[2] = molecular target: T2, CaV3.1 (Homo sapiens, UniProt O43497); experiment: High-throughput CaV3.1 T-type FLIPR fluorescent assay; details: Fluo-4 FLIPR
T2 construct: expressed in transfected cells; host or cells: unnamed doxycycline-inducible cell line
T2 sequence (O43497 whole entry): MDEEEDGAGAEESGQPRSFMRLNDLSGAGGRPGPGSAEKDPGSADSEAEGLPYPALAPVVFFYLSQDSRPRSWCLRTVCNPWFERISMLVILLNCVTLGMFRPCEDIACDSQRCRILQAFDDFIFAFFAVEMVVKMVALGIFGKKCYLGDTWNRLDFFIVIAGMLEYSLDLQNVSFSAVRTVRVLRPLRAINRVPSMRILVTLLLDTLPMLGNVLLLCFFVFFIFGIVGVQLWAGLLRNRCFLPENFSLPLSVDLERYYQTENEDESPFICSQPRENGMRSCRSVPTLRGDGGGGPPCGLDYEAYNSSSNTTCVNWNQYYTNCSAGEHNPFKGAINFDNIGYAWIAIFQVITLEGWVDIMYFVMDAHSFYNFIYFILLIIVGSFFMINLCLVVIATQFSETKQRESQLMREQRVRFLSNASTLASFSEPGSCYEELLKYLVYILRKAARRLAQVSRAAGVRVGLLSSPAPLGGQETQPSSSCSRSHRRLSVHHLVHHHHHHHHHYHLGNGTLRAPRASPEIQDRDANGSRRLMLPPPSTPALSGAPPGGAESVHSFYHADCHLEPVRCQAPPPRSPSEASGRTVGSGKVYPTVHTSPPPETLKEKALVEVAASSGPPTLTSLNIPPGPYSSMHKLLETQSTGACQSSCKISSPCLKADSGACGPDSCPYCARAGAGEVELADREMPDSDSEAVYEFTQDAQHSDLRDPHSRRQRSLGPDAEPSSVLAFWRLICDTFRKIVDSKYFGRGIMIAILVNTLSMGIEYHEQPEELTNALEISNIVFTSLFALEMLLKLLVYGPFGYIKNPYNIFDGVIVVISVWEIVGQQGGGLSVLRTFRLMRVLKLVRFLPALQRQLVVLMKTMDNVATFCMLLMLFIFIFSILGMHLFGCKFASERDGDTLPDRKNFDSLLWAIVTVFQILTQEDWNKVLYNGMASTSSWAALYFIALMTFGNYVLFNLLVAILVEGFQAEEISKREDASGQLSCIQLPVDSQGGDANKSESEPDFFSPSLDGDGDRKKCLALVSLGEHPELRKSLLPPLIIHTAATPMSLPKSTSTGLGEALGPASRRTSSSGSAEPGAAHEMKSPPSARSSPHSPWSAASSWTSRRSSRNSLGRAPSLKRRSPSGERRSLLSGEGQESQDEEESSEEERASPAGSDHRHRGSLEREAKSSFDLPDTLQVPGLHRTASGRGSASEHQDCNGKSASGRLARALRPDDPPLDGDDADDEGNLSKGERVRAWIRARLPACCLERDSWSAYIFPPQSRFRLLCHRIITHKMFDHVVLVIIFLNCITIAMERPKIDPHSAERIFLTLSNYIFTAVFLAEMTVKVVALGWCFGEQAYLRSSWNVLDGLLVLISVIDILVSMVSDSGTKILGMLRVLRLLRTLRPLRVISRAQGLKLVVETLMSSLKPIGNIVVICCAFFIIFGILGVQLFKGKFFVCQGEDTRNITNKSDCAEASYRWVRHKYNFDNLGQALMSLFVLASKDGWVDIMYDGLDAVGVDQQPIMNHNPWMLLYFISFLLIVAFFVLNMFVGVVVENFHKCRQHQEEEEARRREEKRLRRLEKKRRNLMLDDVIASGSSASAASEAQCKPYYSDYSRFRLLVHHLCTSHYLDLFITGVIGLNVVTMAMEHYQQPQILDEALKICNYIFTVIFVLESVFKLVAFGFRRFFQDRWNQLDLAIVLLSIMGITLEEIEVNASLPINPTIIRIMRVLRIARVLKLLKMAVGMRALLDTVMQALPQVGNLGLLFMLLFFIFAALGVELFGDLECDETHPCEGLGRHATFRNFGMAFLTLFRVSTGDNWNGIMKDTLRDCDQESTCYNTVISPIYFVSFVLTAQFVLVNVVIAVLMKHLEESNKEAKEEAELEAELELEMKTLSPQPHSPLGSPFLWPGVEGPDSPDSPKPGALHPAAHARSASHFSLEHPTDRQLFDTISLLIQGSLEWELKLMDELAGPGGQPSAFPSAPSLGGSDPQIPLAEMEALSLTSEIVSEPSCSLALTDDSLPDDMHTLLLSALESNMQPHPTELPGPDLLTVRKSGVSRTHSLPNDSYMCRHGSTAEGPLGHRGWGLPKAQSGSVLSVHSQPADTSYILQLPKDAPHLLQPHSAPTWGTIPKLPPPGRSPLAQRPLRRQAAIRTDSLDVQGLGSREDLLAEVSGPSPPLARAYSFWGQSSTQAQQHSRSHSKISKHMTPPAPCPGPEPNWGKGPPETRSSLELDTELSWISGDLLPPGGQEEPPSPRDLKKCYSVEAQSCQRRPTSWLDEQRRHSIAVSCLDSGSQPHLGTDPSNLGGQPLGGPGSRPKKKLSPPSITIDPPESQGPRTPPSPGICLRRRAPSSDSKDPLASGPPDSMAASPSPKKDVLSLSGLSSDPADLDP
Method: Cells were plated in 384-well, clear-bottom, black-walled, poly-D-lysine coated plates (Becton Dickinson, Franklin Lake, N.J.) 2 days prior to use in the FLIPR assay. 100 μL of cells (2.0×10^6 cell/mL) containing doxycyline (Sigma-Aldrich, 1.5 μg/mL; to induce channel expression) were added to each well using a Multidrop (Thermo Scientific, Waltham, Mass.) and were maintained in 5% CO2 incubator at 37° C. On the morning of the assay, cells were transferred to a 5% CO2 incubator at 29° C.
Cells were washed with a wash buffer containing (in mM): 118 NaCl, 18.4 HEPES, 11.7 D-glucose, 0.05 CaCl2, 0.5 MgSO4, 1 KCl, and 1.2 KH2PO4, with the pH adjusted to 7.2 with NaOH. 4.4 μM of the fluorescent indicator dye, Fluo-4 (Invitrogen), prepared in pluronic acid
(Sigma-Aldrich), was loaded into the wells and incubated for 45 minutes at 29° C. in 5% CO2. Cells were then rinsed with the following low Ca^2+ buffer (in mM): 0.34 Na2HPO4, 4.2 NaHCO3, 0.44 KH2PO4, 0.41 MgSO4, 0.49 MgCl2-6H2O, 20 HEPES, 5.5 D-Glucose, 137 NaCl, 5.3 KCl, and 0.001 CaCl2, with 0.1% BSA and the pH adjusted to 7.2 with NaOH. Concentration-dependent response curves were generated from 5 mM stock solutions prepared in DMSO (Sigma-Aldrich) and diluted in the buffer containing low Ca^2+ and incubated for 20 minutes at 29° C. in 5% CO2. Calcium entry was evoked with an addition of (in mM): 0.34 Na2HPO4, 4.2 NaHCO3, 0.44 KH2PO4, 0.41 MgSO4, 0.49 MgCl2-6H2O, 20 HEPES, 5.5 D-Glucose, 137 NaCl, 5.3 KCl, and 6 CaCl2, with 0.1% BSA and the pH adjusted to 7.2 with NaOH. A change in the Fluo-4 fluorescence signal was assessed using FLIPR^TETRA™ instrument (Molecular Devices, Sunnyvale, Calif.) for 3 minutes following the elevation of extracellular KCl using an illumination wavelength of 470-495 nm with emissions recorded at 515-575 nm.
Concentration-dependent response curves were obtained by comparing the fluorescence signal in the presence of compound and fitted with a logistic function (1) to obtain the concentration that inhibited 50% (IC50) of the RLU signal using OriginPro v.7.5 software (OriginLab, Northampton, Mass.).
To assess the quality of the FLIPR assays the Z-factor (2) was used to quantify the suitability of the assay conditions using the following equation: […]
Data are expressed as mean and standard deviation (SD).

[3] = molecular target: T3, CaV3.2 (Homo sapiens, UniProt O95180); experiment: High-throughput CaV3.2/Kir2.3 T-type FLIPR fluorescent assay; details: Fluo-4 FLIPR, closed or inactivated state not stated
T3 construct: expressed in transfected cells; host or cells: unnamed doxycycline-inducible cell line
T3 sequence (O95180 whole entry): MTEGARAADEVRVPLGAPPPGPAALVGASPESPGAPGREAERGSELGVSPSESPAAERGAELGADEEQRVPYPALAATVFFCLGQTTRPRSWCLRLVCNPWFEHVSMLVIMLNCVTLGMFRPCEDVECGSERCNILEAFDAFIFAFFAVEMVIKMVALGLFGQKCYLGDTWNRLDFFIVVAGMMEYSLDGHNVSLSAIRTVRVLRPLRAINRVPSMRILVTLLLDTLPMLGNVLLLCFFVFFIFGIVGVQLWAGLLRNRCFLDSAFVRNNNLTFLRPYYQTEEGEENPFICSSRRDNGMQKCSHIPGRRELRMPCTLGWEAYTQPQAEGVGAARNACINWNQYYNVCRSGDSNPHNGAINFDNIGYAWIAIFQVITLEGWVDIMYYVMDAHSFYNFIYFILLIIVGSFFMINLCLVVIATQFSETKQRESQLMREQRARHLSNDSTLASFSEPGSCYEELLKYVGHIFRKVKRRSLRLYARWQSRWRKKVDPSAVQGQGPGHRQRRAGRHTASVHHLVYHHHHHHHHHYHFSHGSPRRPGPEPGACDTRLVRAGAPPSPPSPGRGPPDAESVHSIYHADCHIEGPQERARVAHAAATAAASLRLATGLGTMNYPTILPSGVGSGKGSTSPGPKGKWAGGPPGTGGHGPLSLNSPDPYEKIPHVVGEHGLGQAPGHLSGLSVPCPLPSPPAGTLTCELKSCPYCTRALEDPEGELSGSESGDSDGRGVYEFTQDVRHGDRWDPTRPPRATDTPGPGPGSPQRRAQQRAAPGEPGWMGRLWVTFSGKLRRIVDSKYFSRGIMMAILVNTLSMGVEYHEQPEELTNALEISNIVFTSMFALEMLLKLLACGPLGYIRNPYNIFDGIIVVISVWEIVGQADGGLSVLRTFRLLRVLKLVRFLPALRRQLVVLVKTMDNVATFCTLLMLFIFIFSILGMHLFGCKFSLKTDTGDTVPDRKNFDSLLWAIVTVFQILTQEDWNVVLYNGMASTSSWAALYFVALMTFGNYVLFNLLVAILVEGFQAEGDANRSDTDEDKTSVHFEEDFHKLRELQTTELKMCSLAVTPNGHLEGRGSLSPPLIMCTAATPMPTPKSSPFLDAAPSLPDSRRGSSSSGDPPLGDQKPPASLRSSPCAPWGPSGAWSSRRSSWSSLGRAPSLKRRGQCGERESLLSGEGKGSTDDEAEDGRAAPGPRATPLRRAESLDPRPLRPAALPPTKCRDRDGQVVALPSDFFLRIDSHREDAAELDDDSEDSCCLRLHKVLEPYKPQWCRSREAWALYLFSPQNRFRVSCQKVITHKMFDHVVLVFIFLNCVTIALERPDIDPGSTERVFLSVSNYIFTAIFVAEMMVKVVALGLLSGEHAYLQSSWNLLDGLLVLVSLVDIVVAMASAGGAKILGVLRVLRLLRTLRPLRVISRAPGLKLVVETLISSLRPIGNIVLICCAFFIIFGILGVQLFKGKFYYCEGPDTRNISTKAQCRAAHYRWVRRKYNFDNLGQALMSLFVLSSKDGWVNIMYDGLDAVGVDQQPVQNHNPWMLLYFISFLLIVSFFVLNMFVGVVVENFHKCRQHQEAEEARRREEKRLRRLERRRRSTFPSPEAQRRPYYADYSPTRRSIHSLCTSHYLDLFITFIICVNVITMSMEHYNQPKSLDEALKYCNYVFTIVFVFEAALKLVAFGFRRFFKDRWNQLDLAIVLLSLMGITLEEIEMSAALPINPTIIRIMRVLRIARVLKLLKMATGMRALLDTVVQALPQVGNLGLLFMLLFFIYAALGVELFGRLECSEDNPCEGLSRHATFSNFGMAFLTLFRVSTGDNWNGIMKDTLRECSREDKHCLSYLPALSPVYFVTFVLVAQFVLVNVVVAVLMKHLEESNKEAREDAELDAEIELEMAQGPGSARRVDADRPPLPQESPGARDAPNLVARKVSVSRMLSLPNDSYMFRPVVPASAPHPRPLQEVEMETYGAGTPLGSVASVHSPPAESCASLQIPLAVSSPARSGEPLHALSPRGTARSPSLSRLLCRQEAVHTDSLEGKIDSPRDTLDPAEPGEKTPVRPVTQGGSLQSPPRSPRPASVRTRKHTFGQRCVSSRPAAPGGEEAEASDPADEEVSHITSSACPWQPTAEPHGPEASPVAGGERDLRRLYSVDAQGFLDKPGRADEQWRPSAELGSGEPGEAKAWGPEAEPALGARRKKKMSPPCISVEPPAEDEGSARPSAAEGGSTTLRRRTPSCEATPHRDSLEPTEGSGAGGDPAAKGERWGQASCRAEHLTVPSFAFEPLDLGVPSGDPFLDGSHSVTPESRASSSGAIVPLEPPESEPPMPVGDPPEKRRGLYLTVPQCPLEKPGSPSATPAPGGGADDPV
Method in brief: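 Doxycycline-induced cells loaded with Fluo-4, preincubated 20 min at 29°C with compound in 2 mM KCl (closed-state) or 7.6 mM KCl (inactivated-state) buffer, pH 7.4. Calcium entry triggered by 12 mM or 14.5 mM KCl respectively; fluorescence read 3 min by FLIPR, IC50 from logistic fit.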

Row | SMILES | IC50 ([1]; Table 4) [nM] | IC50 ([2]; Table 4) [nM] | IC50 ([3]; Table 4) [nM] | IC50 ([1]; Table 5) [nM] | IC50 ([2]; Table 5) [nM] | IC50 ([3]; Table 5) [nM]
1 | CS(=O)(=O)c1cc(C(=O)NCc2ccc(S(=O)(=O)c3cccc(C(F)(F)F)c3)cn2)cc(C(F)(F)F)n1 [Compound 94, 2-(methylsulfonyl)-6-(trifluoromethyl)-N-((5-((3-(trifluoromethyl)phenyl)sulfonyl)pyridin-2-yl)methyl)isonicotinamide] | 820 | 1630 | 1450 | – | – | –
2 | Cn1nc(C(F)(F)F)cc1C(=O)NCc1cc(S(=O)(=O)c2cccc(C(F)(F)F)c2)ccn1 [Compound 109, 1-methyl-3-(trifluoromethyl)-N-((4-((3-(trifluoromethyl)phenyl)sulfonyl)pyridin-2-yl)methyl)-1H-pyrazole-5-carboxamide] | 820 | 6530 | 3970 | – | – | –
3 | CC(C)(CNC(=O)C(C)(C)S(=O)(=O)c1cccc(C(F)(F)F)c1)S(=O)(=O)c1cccc(C(F)(F)F)c1 [Compound 149, 2-methyl-N-(2-methyl-2-((3-(trifluoromethyl)phenyl)sulfonyl)propyl)-2-((3-(trifluoromethyl)phenyl)sulfonyl)propanamide] | – | – | – | 460 | 3850 | 2860
4 | O=C1c2cc(C(F)(F)F)nn2CCN1Cc1ccccc1S(=O)(=O)c1cccc(C(F)(F)F)c1 [Compound 35, 2-(trifluoromethyl)-5-(2-((3-(trifluoromethyl)phenyl)sulfonyl)benzyl)-6,7-dihydropyrazolo[1,5-a]pyrazin-4(5H)-one] | 1220 | 1850 | 1740 | – | – | –
5 | CS(=O)(=O)c1cc(C(F)(F)F)ccc1C(=O)NCc1ccccc1S(=O)(=O)c1cccc(C(F)(F)F)c1 [Compound 47, 2-(methylsulfonyl)-4-(trifluoromethyl)-N-(2-((3-(trifluoromethyl)phenyl)sulfonyl)benzyl)benzamide] | 590 | 270 | 2130 | – | – | –
6 | Cn1nc(C(F)(F)F)cc1C(=O)NCc1ccccc1S(=O)(=O)c1cccc(C(F)(F)F)c1 [Compound 41, 1-methyl-3-(trifluoromethyl)-N-(2-((3-(trifluoromethyl)phenyl)sulfonyl)benzyl)-1H-pyrazole-5-carboxamide] | 380 | 920 | 1390 | – | – | –
7 | CC(C)(C(=O)Nc1ccc(Oc2ccc(F)c(Cl)c2)nc1)S(=O)(=O)c1cccc(OC(F)(F)F)c1 [Compound 121, N-(6-(3-chloro-4-fluorophenoxy)pyridin-3-yl)-2-methyl-2-((3-(trifluoromethoxy)phenyl)sulfonyl)propanamide] | – | – | – | 660 | 4900 | 1150
8 | N[C@@H]1CCCC[C@H]1C(=O)NCc1ccc(S(=O)(=O)c2cccc(C(F)(F)F)c2)cc1 [Compound 81, (1R,2R)-2-amino-N-(4-((3-(trifluoromethyl)phenyl)sulfonyl)benzyl)cyclohexanecarboxamide] | 680 | 8240 | 4560 | – | – | –
9 | CC(C)(C(=O)Nc1ccc(Oc2ccc(C(F)(F)F)nc2)nc1)S(=O)(=O)c1cccc(OC(F)(F)F)c1 [Compound 122, 2-methyl-2-((3-(trifluoromethoxy)phenyl)sulfonyl)-N-(6-((6-(trifluoromethyl)pyridin-3-yl)oxy)pyridin-3-yl)propanamide] | – | – | – | 700 | 4890 | 1640
10 | O=C(NCc1cccc(S(=O)(=O)c2cccc(C(F)(F)F)c2)c1)c1ccnn1CC(F)(F)F [Compound 29, 1-(2,2,2-trifluoroethyl)-N-(3-((3-(trifluoromethyl)phenyl)sulfonyl)benzyl)-1H-pyrazole-5-carboxamide] | 340 | 1850 | 600 | – | – | –
11 | N[C@H](C(=O)NCc1ccc(S(=O)(=O)c2cccc(C(F)(F)F)c2)cc1)c1ccccc1 [Compound 67, (S)-2-amino-2-phenyl-N-(4-((3-(trifluoromethyl)phenyl)sulfonyl)benzyl)acetamide] | 660 | 3640 | 3740 | – | – | –
12 | CS(=O)(=O)c1nc(C(F)(F)F)ccc1C(=O)NCc1ccc(S(=O)(=O)c2cccc(C(F)(F)F)c2)cc1 [Compound 6, 2-(methylsulfonyl)-6-(trifluoromethyl)-N-(4-((3-(trifluoromethyl)phenyl)sulfonyl)benzyl)nicotinamide] | 710 | 2340 | 1510 | – | – | –
13 | O=C(NCc1ccccc1S(=O)(=O)c1cccc(C(F)(F)F)c1)[C@@H]1C[C@@H](C2CCCCC2)CN1 [Compound 75, (2S,4S)-4-cyclohexyl-N-(2-((3-(trifluoromethyl)phenyl)sulfonyl)benzyl)pyrrolidine-2-carboxamide] | 1060 | 5470 | 1590 | – | – | –
14 | CS(=O)(=O)c1cc(C(F)(F)F)cnc1C(=O)NCc1cccc(S(=O)(=O)c2cccc(C(F)(F)F)c2)c1 [Compound 24, 3-(methylsulfonyl)-5-(trifluoromethyl)-N-(3-((3-(trifluoromethyl)phenyl)sulfonyl)benzyl)picolinamide] | 410 | 3240 | 550 | – | – | –
15 | O=C(NCc1ccc(S(=O)(=O)c2cccc(C(F)(F)F)c2)cc1)c1ccc(C(F)(F)F)nc1 [Compound 3, 6-(trifluoromethy)-N-(4-((3-(trifluoromethyl)phenyl)sulfonyl)benzyl)nicotinamide] | 510 | 1340 | 650 | – | – | –
16 | CC(C)(C(=O)NC1CCN(c2ccc(C(F)(F)F)cc2)CC1)S(=O)(=O)c1cccc(C(F)(F)F)c1 [Compound 137, 2-methyl-N-(1-(4-(trifluoromethyl)phenyl)piperidin-4-yl)-2-((3-(trifluoromethyl)phenyl)sulfonyl)propanamide] | – | – | – | 1610 | 4530 | 3000
17 | CS(=O)(=O)c1cc(C(=O)NCc2ccc(S(=O)(=O)c3cccc(C(F)(F)F)c3)cc2)cc(C(F)(F)F)n1 [Compound 10, 2-(methylsulfonyl)-6-(trifluoromethyl)-N-(4-((3-(trifluoromethyl)phenyl)sulfonyl)benzyl)isonicotinamide] | 690 | 1970 | 980 | – | – | –
18 | CS(=O)(=O)c1cc(C(F)(F)F)cnc1C(=O)NCc1ccccc1S(=O)(=O)c1cccc(C(F)(F)F)c1 [Compound 43, 3-(methylsulfonyl)-5-(trifluoromethyl)-N-(2-((3-(trifluoromethyl)phenyl)sulfonyl)benzyl)picolinamide] | 670 | 1420 | 3380 | – | – | –
19 | O=C(NCc1cccc(S(=O)(=O)c2cccc(C(F)(F)F)c2)c1)c1cc(F)cc(Cl)c1 [Compound 18, 3-chloro-5-fluoro-N-(3-((3-(trifluoromethyl)phenyl)sulfonyl)benzyl)benzamide] | 220 | 1570 | 840 | – | – | –
20 | CS(=O)(=O)c1cc(C(F)(F)F)cnc1C(=O)NCc1ccc(S(=O)(=O)c2cccc(C(F)(F)F)c2)cc1 [Compound 5, 3-(methylsulfonyl)-5-(trifluoromethyl)-N-(4-((3-(trifluoromethyl)phenyl)sulfonyl)benzyl)picolinamide] | 470 | 1350 | 2370 | – | – | –
21 | Cn1nc(C(F)(F)F)cc1C(=O)NCc1ccc(S(=O)(=O)c2cccc(C(F)(F)F)c2)cc1 [Compound 7, 1-methyl-3-(trifluoromethyl)-N-(4-((3-(trifluoromethyl)phenyl)sulfonyl)benzyl)-1H-pyrazole-5-carboxamide] | 390 | 1330 | 510 | – | – | –
